Assays:
sedge, umbrella = test: Test B flooded paddy test; type: in vivo, Cyperus difformis; settings: Flood, 250 g ai/ha; 0 to 100 scale where 0 is no effect and 100 is complete control
Outline: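 Plants were grown to the 2-leaf stage, then pots were flooded to 3 cm above the soil and compounds were applied directly into the paddy water. That depth was held throughout, and after 13 to 15 days in the greenhouse injury was rated visually against controls on a 0–100 scale (0 no effect, 100 complete control).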

velvetleaf [1] = test: Test C preemergence; type: in vivo, Abutilon theophrasti; settings: for Velvetleaf plant response rating: preemergence
Outline: (§1)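 Preemergence: seeds sown in a loam soil–sand blend and sprayed with test chemical in a non-phytotoxic solvent mixture containing surfactant. Postemergence: plants at 2 to 18 cm (1- to 4-leaf stage) in peat-based medium, treated with the same formulation. Greenhouse 13 to 15 days, then visual rating 0 (no effect) to 100 (complete control).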

galium = test: Test C postemergence; type: in vivo, Galium aparine; settings: for Plant response rating (0 to 100), Galium: 16 g ai/ha, 0 is no effect, 100 is complete control; for Plant response rating, Galium: scale 0 to 100 (0 no effect, 100 complete control)
Outline: as §1

wheat = test: Test A postemergence; type: in vivo, Triticum aestivum
Outline: (§2)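 Visual 0–100 rating (100 = complete control) taken about 10 d post-treatment relative to untreated checks. Preemergence: directed soil spray on sown loam/sand pots. Postemergence: seedlings 2–10 cm, 1–2 leaf. Non-phytotoxic solvent formulation with surfactant.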

wheat, winter = test: Test C postemergence; type: in vivo, Triticum aestivum; settings: for Plant response rating (0 to 100), Wheat: 16 g ai/ha, 0 is no effect, 100 is complete control; for Plant response rating, Wheat: scale 0 to 100 (0 no effect, 100 complete control)
Outline: as §1

morningglory [2] = test: Test C postemergence; type: in vivo, Ipomoea coccinea; settings: for Plant response rating (0 to 100), Morningglory: 16 g ai/ha, 0 is no effect, 100 is complete control; for Plant response rating, Morningglory: scale 0 to 100 (0 no effect, 100 complete control)
Outline: as §1

corn = test: Test C preemergence; type: in vivo, Zea mays; settings: for Corn plant response rating: preemergence; for Plant response rating, Corn: Preemergence, 31 g ai/ha, scale 0 to 100, 0 no effect, 100 complete control
Outline: as §1

barnyardgrass = test: Test A postemergence; type: in vivo, Echinochloa crus-galli
Outline: as §2

giant foxtail [3] = test: Test C postemergence; type: in vivo, Setaria faberii; settings: for Plant response rating (0 to 100), Foxtail, Giant: 16 g ai/ha, 0 is no effect, 100 is complete control; for Plant response rating, Foxtail, Giant: scale 0 to 100 (0 no effect, 100 complete control)
Outline: as §1

waterhemp = test: Test C preemergence; type: in vivo, Amaranthus rudis; settings: for Waterhemp plant response rating: preemergence
Outline: as §1

morningglory [4] = test: Test C preemergence; type: in vivo, Ipomoea coccinea; settings: for Morningglory plant response rating: preemergence
Outline: as §1

yellow nutsedge = test: Test C postemergence; type: in vivo, Cyperus esculentus; settings: for Plant response rating, Nutsedge, Yellow: scale 0 to 100 (0 no effect, 100 complete control)
Outline: as §1

giant foxtail [5] = test: Test A preemergence; type: in vivo, Setaria faberii
Outline: as §2

ragweed = test: Test C postemergence; type: in vivo, Ambrosia elatior; settings: for Plant response rating (0 to 100), Ragweed: 16 g ai/ha, 0 is no effect, 100 is complete control; for Plant response rating, Ragweed: scale 0 to 100 (0 no effect, 100 complete control)
Outline: as §1

velvetleaf [6] = test: Test A postemergence; type: in vivo, Abutilon theophrasti; settings: 1000 g ai/ha, 0 to 100 scale, 0 no effect, 100 complete control
Outline: as §2

[7] = 16 g ai/ha, scale 0 to 100 (0 no effect, 100 complete control)
[8] = 62 g ai/ha, scale 0 (no effect) to 100 (complete control)
[9] = 125 g ai/ha, scale 0 (no effect) to 100 (complete control)
[10] = 125 g ai/ha, postemergence, visual rating
[11] = 125 g ai/ha, 0 to 100 scale where 0 is no effect and 100 is complete control
[12] = 500 g ai/ha, 0 to 100 scale where 0 is no effect and 100 is complete control
[13] = Preemergence, 31 g ai/ha, scale 0 to 100, 0 no effect, 100 complete control
[14] = 1000 g ai/ha, 0 to 100 scale, 0 no effect, 100 complete control

Row | Structure (SMILES) | Plant response rating, Sedge, Umbrella (sedge, umbrella) | Velvetleaf plant response rating (velvetleaf [1]; [7]) | Velvetleaf plant response rating (velvetleaf [1]; [8]) | Velvetleaf plant response rating (velvetleaf [1]; [9]) | Plant response rating (0 to 100), Galium (galium; postemergence) | Plant response rating, Galium (galium; [10]) | Plant response rating, Galium (galium; Postemergence, 62 g ai/ha) | Plant response rating (0 to 100), Wheat (wheat, winter; postemergence) | Plant response rating, Wheat (wheat, winter; [10]) | Plant response rating, Wheat (wheat, winter; Postemergence, 62 g ai/ha) | Plant response rating (0 to 100), Morningglory (morningglory [2]; postemergence) | Plant response rating, Morningglory (morningglory [2]; [10]) | Plant response rating, Morningglory (morningglory [2]; Postemergence, 62 g ai/ha) | Corn plant response rating (corn; [7]) | Corn plant response rating (corn; [8]) | Corn plant response rating (corn; [9]) | Plant response rating, Corn (corn) | Plant response rating (0 to 100), Foxtail, Giant (giant foxtail [3]; postemergence) | Plant response rating, Foxtail, Giant (giant foxtail [3]; [10]) | Plant response rating, Foxtail, Giant (giant foxtail [3]; Postemergence, 62 g ai/ha) | also measured
1 | Cc1cnc(Oc2cccc(C#N)c2-n2cc(I)cn2)nc1 [Compound 136] | 70 | 5 | 30 | 90 | 20 | 60 | 55 | 0 | 5 | 5 | 5 | 40 | 50 | 5 | 5 | 15 | 0 | 5 | 10 | 5 | Wheat plant response rating (wheat; [11]): 0; Plant response rating, Wheat (wheat; [12]): 50; Barnyardgrass plant response rating (barnyardgrass; [11]): 30; Plant response rating, Barnyardgrass (barnyardgrass; [12]): 90; Waterhemp plant response rating (waterhemp; [7]): 0; Waterhemp plant response rating (waterhemp; [8]): 75; Waterhemp plant response rating (waterhemp; [9]): 100; Morningglory plant response rating (morningglory [4]; [7]): 20; Morningglory plant response rating (morningglory [4]; [8]): 10; Morningglory plant response rating (morningglory [4]; [9]): 60; Plant response rating (0 to 100), Nutsedge, Yellow (yellow nutsedge; 16 g ai/ha, postemergence, 0 is no effect, 100 is complete control): 0; Plant response rating, Nutsedge, Yellow (yellow nutsedge; [10]): 10; Plant response rating, Nutsedge, Yellow (yellow nutsedge; Postemergence, 62 g ai/ha): 5; Plant response rating, Foxtail, Giant (giant foxtail [5]; [11]): 60; Foxtail, Giant plant response rating (giant foxtail [5]; [12]): 100; Plant response rating (0 to 100), Ragweed (ragweed; postemergence): 25; Plant response rating, Ragweed (ragweed; [10]): 45; Plant response rating, Ragweed (ragweed; Postemergence, 62 g ai/ha): 45
2 | N#Cc1cn(-c2c(Br)cccc2Oc2ncc(Cl)cn2)nn1 [Compound 116] | 30 | 20 | 100 | 100 | 55 | 80 | 80 | 0 | 5 | 5 | 50 | 80 | 60 | 0 | 5 | 25 | 0 | 30 | 10 | 40 | Plant response rating, Velvetleaf (velvetleaf [1]; [13]): 70; Plant response rating, Wheat (wheat; [14]): 50; Plant response rating, Barnyardgrass (barnyardgrass; [14]): 90; Waterhemp plant response rating (waterhemp; [7]): 100; Waterhemp plant response rating (waterhemp; [8]): 100; Waterhemp plant response rating (waterhemp; [9]): 100; Plant response rating, Waterhemp (waterhemp; [13]): 100; Morningglory plant response rating (morningglory [4]; [7]): 0; Morningglory plant response rating (morningglory [4]; [8]): 20; Morningglory plant response rating (morningglory [4]; [9]): 20; Plant response rating, Morningglory (morningglory [4]; [13]): 5; Plant response rating, Velvetleaf (velvetleaf [6]): 100; Foxtail, Giant plant response rating (giant foxtail [5]; 1000 g ai/ha, 0 to 100 scale, 0 no effect, 100 complete control, approx. 10 days): 100; Plant response rating (0 to 100), Ragweed (ragweed; postemergence): 5; Plant response rating, Ragweed (ragweed; [10]): 70; Plant response rating, Ragweed (ragweed; Postemergence, 62 g ai/ha): 25

— US9695155B2, “Herbicidal substituted pyrimidinyloxy benzene compounds” (E. I. DU PONT DE NEMOURS AND COMPANY, priority 2013, dated 2017)
